Laboratory results: PubChem BioAssay (NCI)
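Cells were grown in 96-well plates and exposed to each compound for 48 hours at five concentrations; endpoints were interpolated linearly between bracketing concentrations, or set to the highest concentration if not reached. At the GI50, growth is halved. TGI denotes the concentration required for complete inhibition of growth.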

Columns and labels:
Assay in all cases: inhibition of tumour cell growth, NCI panel, 48 h
MDA-N = system: MDA-N
SK-MEL-28 melanoma = system: SK-MEL-28 melanoma
RXF 393 renal = system: RXF 393 renal
NCI-H23 lung = system: NCI-H23 lung
SF-539 CNS = system: SF-539 CNS
UO-31 renal = system: UO-31 renal
HOP-62 NSCLC = system: HOP-62 NSCLC
COLO 205 colon = system: COLO 205 colon
HT29 colon = system: HT29 colon
LOX IMVI melanoma = system: LOX IMVI melanoma
MALME-3M melanoma = system: MALME-3M melanoma

| SMILES | TGI (MDA-N) [µM] | TGI (SK-MEL-28 melanoma) [µM] | TGI (RXF 393 renal) [µM] | TGI (NCI-H23 lung) [µM] | TGI (SF-539 CNS) [µM] | TGI (UO-31 renal) [µM] | TGI (HOP-62 NSCLC) [µM] | TGI (COLO 205 colon) [µM] | TGI (HT29 colon) [µM] | TGI (LOX IMVI melanoma) [µM] | TGI (MALME-3M melanoma) [µM] | GI50 (SK-MEL-28 melanoma) [µM] | GI50 (RXF 393 renal) [µM] | GI50 (NCI-H23 lung) [µM] | GI50 (SF-539 CNS) [µM] | GI50 (UO-31 renal) [µM] | GI50 (HOP-62 NSCLC) [µM] | GI50 (COLO 205 colon) [µM] | GI50 (MALME-3M melanoma) [µM] | GI50 (HT29 colon) [µM] |
| --- | --- | --- | --- | --- | --- | --- | --- | --- | --- | --- | --- | --- | --- | --- | --- | --- | --- | --- | --- | --- |
| Cc1nc2ccc(Br)cc2c(=O)n1-c1nnc(C(C)(C)C)s1 | > 10 | > 10 | > 10 | > 10 | > 10 | 4.45 | > 10 | > 10 | > 10 | > 10 |  |  |  |  |  |  |  |  |  |  |
| O=C(CSc1nnc(-c2ccccn2)s1)N/N=C/c1ccccc1 | > 100 | > 100 |  | > 100 | > 100 | > 100 | > 100 | > 100 | > 100 | > 100 | > 100 |  |  |  |  |  |  |  |  |  |
| Nc1ccccc1CCN1CCN(CCCc2ccccc2)CC1 | > 100 | > 100 |  | > 100 | > 100 | > 100 | > 100 | 55 | > 100 | > 100 | 31.6 |  |  |  |  |  |  |  |  |  |
| CCOC(=O)c1sc(=S)n(-c2ccc(Cl)cc2)c1-n1cc(-c2ccccc2)c(C#N)c1N | > 100 | > 100 | 64.3 | 70.6 | 50.6 |  | 14.7 | > 100 | > 100 | > 100 |  |  |  |  |  |  |  |  |  |  |
| Clc1ccc(CCN(CCc2ccc(Cl)c(Cl)c2)CCN2CCCC2)cc1Cl | 3.32 |  | 3.33 | 3.42 | 3.18 | 3 | 3.03 | 3.48 | 3.41 | 2.95 | 3.5 |  |  |  |  |  |  |  |  |  |
| O=C(/C=C/c1ccc(O)c(O)c1)OCC(OC(=O)/C=C/c1ccc(O)c(O)c1)C(=O)O (stereo not given) | > 100 | > 100 | > 100 | > 100 | > 100 | > 100 | > 100 | > 100 | > 100 | > 100 |  |  |  |  |  |  |  |  |  |  |
| CCCC(C)c1ccc(OCCCCCCN2CCNCC2)cc1 (stereo not given) |  | 3.65 | 3 | 5.62 | 3.46 | 20.3 | 24.1 | 3.42 | 3.74 |  | 3.75 | 1.84 | 1.55 | 2.13 | 1.71 | 4.32 | 4.55 | 1.65 | 1.93 | 1.66 |
| O=C(NN1C(=O)C(Cl)C1c1ccc(Cl)cc1)c1c(Cl)c(Cl)c(Cl)c(Cl)c1-c1nc2ccccc2[nH]1 (stereo not given) |  | 78.7 | 17.9 | 69 | > 100 | > 100 | > 100 | 36.2 | 75.8 | 32.5 | 63.4 |  |  |  |  |  |  |  |  |  |
| Cc1ccc(S(=O)(=O)Nc2cccc3c(=O)[nH]cnc23)cc1 |  | > 100 | > 100 | > 100 | > 100 | > 100 | > 100 | > 100 | > 100 | > 100 | > 100 |  |  |  |  |  |  |  |  |  |
| O=C(O)CO[C@@]12C#C/C=C\C#C[C@@H]3N(C(=O)Oc4ccccc4)c4ccccc4[C@]14O[C@@]34CCC2 | 34.5 | > 100 |  | > 100 | > 100 | 90 | > 100 | 46.8 | > 100 | > 100 |  |  |  |  |  |  |  |  |  |  |
| C=C(CCOC)CCC1CCCCC(CN(C)C)C1=O (stereo not given) | > 100 | > 100 | > 100 | > 100 |  | > 100 | > 100 | > 100 | > 100 | > 100 | > 100 |  |  |  |  |  |  |  |  |  |
| S=C(N/N=C/c1ccccn1)N1CCCCC1 | > 100 | > 100 | 3.94 | > 45.7 | 0.749 | 15.2 |  | > 100 | > 100 | 20.8 | 7.57 |  |  |  |  |  |  |  |  |  |
| N#Cc1ccc(-c2nc3c(N)ncnc3o2)cc1 | > 100 | > 100 | > 100 | > 100 | > 100 | > 100 | > 100 | > 100 | > 100 | > 100 |  |  |  |  |  |  |  |  |  |  |
| CCC(CC)NC1=C(NC(C)=O)C(=O)c2ccccc2C1=O |  | > 50 | > 50 | > 50 | > 50 | > 50 | > 50 | > 50 | > 50 | > 50 | > 50 |  |  |  |  |  |  |  |  |  |
| CCCCCCNCCc1cnc[nH]1 |  | > 100 | > 100 | > 100 | > 100 | > 100 | > 100 | > 100 | > 100 | > 100 | > 100 |  |  |  |  |  |  |  |  |  |
| COC1(OC)N=C(N)C2(C#N)C(c3ccccc3)NC3=C(CCC3)C12C#N (stereo not given) | > 100 | > 100 | > 100 | > 100 |  | > 100 | > 100 | > 100 | > 100 | > 100 | > 100 |  |  |  |  |  |  |  |  |  |
| NC(=Nc1ccccc1Cl)c1ccccc1N | > 100 | > 100 | > 100 | > 100 |  | > 100 | > 100 | > 100 | > 100 | > 100 | > 100 |  |  |  |  |  |  |  |  |  |
| CN(C)/C=C/C(=CC=[N+](C)C)/C=C/N(C)C |  | > 100 | > 100 | > 100 | > 100 | > 100 | > 100 |  | > 100 | > 100 | > 100 |  |  |  |  |  |  |  |  |  |
| CC(=O)OCC1OC(N2C(C)=C(C(C)=O)C(c3ccc(Cl)cc3)C(C#N)=C2S)C(OC(C)=O)C(OC(C)=O)C1OC(C)=O (stereo not given) | > 100 | > 100 | > 100 |  | > 100 | 88.8 | > 100 | 35.6 | > 100 | > 100 | > 100 |  |  |  |  |  |  |  |  |  |
| CC1C2CC(C(S(=O)(=O)O)C2=O)C1(C)C (stereo not given) | > 100 | > 100 | > 100 | > 100 | > 100 | > 100 | > 100 | > 100 | > 100 |  | > 100 |  |  |  |  |  |  |  |  |  |
| COC(=O)C1Cc2cc3c(cc2C1=O)CCC3 (stereo not given) | > 100 | > 100 |  | > 100 | > 100 | > 100 | > 100 | > 100 | > 100 | > 100 | > 100 |  |  |  |  |  |  |  |  |  |
